Results taken from patent US4415567A, “7α-Methoxycephalosporin derivatives, and antibacterial drugs containing the same” (Eisai Co., Ltd., priority 1980, dated 1983).
≈ marks a conversion by molar mass, not a printed value. Structures can show the parent of a compound that is named as a salt. Where two headings read alike, the source gives them in different places.

Experiments:
Type in all cases: cell-based
[1] = system: Staphylococcus aureus 209-P; assay: MIC, standard agar dilution method, Staphylococcus aureus 209-P; details: Mueller Hinton agar, 18 hours, 37° C.
Method: (§1) Minimal inhibitory concentration (MIC) was determined by the standard agar dilution method of the Japan Society of Chemotherapy.
(§2) Compounds were dissolved in appropriate solvents (sterilized water for sodium salts and acetone-water [1:1] for free acids) and serial two-fold dilutions were made. Sodium salt of Cefazolin was chosen as the control compound.
(§3) One-ml aliquots of each dilution were mixed with 9 ml of Mueller Hinton gar in petri-dishes to make agar plates containing the compound at serially diluted concentrations. After agar hardened, plates were put in an incubator at 37° C. for 1.5-2 hours with the lids slightly open to evaporate acetone off the plates.
(§4) Test organisms were grown for 18 hours at 37° C. in Trypticase Soy broth and diluted in saline to approximately 10^6 colony forming units per ml. A loopful of each cell suspension was applied on the agar plate mentioned above and the plates were incubated for 18 hours at 37° C. before MIC was determined.
(§5) The results are shown in Table 2, wherein the compound of Example 5 was selected and used in a form of free carboxylic acid as set forth in the Example 5, Item (a).

Escherichia coli NIHJ = assay: MIC, standard agar dilution method, Escherichia coli NIHJ
Method: as §1, §2, §3, §4, §5

[2] = system: Klebsielle pneumoniae EK-6; assay: MIC, standard agar dilution method, Klebsielle pneumoniae EK-6
Method: as §1, §2, §3, §4, §5

Proteus morganii EP-14 = assay: MIC, standard agar dilution method, Proteus morganii EP-14; details: Morganella morganii, EP14, Mueller Hinton agar, 18 hours, 37° C.
Method: as §1, §2, §3, §4, §5

[3] = system: Pseudomonas aeruginosa EP-172; assay: MIC, standard agar dilution method, Pseudomonas aeruginosa EP-172; details: EP172, Mueller Hinton agar, 18 hours, 37° C.
Method: as §1, §2, §3, §4, §5

[4] = system: Serratia marcescens ES-75; assay: MIC, standard agar dilution method, Serratia marcescens ES-75; details: ES75, Mueller Hinton agar, 18 hours, 37° C.
Method: as §1, §2, §3, §4, §5

Proteus bulgaris E-18 = assay: MIC, standard agar dilution method, Proteus bulgaris E-18; details: Mueller Hinton agar, 18 hours, 37° C.
Method: as §1, §2, §3, §4, §5

[5] = Escherichia coli NIHJ, Mueller Hinton agar, 18 hours, 37° C., read-out: MIC
[6] = Klebsielle pneumoniae EK-6, Mueller Hinton agar, 18 hours, 37° C., read-out: MIC

SMILES | MIC [1] | MIC (Escherichia coli NIHJ; [5]) | MIC [2, 6] | MIC (Proteus morganii EP-14) | MIC [3] | MIC [4] | MIC (Proteus bulgaris E-18) | MIC (Escherichia coli NIHJ; Escherichia coli, 18 h) | MIC ([2]; 18 h)
CO[C@@]1(NC(=O)[C@H](NC(=O)c2coc3ccccc3c2=O)c2ccc(O)cc2)C(=O)N2C(C(=O)O)=C(CSc3nnnn3C)CS[C@@H]21 [Example 10, 7β-[D-2-(Chromone-3-carboxamido)-2-(4-hydroxyphenyl)acetamido]-7α-methoxy-3-(1-methyl-5-tetrazolyl)thiomethyl-3-cephem-4-carboxylic acid] | 0.4 µg/mL (≈ 0.589 µM) | 12.5 µg/mL (≈ 18.4 µM) | 12.5 µg/mL (≈ 18.4 µM) | 25 µg/mL (≈ 36.8 µM) | 25 µg/mL (≈ 36.8 µM) | 12.5 µg/mL (≈ 18.4 µM) | 50 µg/mL (≈ 73.6 µM) | – | –
CO[C@@]1(NC(=O)[C@H](NC(=O)c2coc3cc(O)c(O)cc3c2=O)c2ccc(O)cc2)C(=O)N2C(C(=O)O)=C(CSc3nnnn3CC(=O)O)CS[C@@H]21 [Example 15, 7β-[D-2-(6,7-Dihydroxychromone-3-carboxamido)-2-(4-hydroxyphenyl)acetamido]-7α-methoxy-3-(1-carboxymethyl-5-tetrazolyl)thiomethyl-3-cephem-4-carboxylic acid] | 6.25 µg/mL (≈ 8.27 µM) | 6.25 µg/mL (≈ 8.27 µM) | ≤ 0.1 µg/mL | 12.5 µg/mL (≈ 16.5 µM) | 3.13 µg/mL (≈ 4.14 µM) | 0.4 µg/mL (≈ 0.529 µM) | 1.56 µg/mL (≈ 2.06 µM) | – | –
CO[C@@]1(NC(=O)[C@H](NC(=O)c2coc3cc(O)c(O)cc3c2=O)c2ccccc2)C(=O)N2C(C(=O)O)=C(CSc3nnc(C)s3)CS[C@@H]21 [Example 6, 7β-[D-2-(6,7-Dihydroxychromone-3-carboxyamido)-2-phenylacetamido]-7α-methoxy-3-[2-5-methyl-2-(1,3,4-thiadiazolyl)]thiomethyl-3-cepnem-4-carboxylic acid] | 3.13 µg/mL (≈ 4.4 µM) | 0.8 µg/mL (≈ 1.12 µM) | ≤ 0.1 µg/mL | 12.5 µg/mL (≈ 17.6 µM) | 3.13 µg/mL (≈ 4.4 µM) | ≤ 0.1 µg/mL | 0.8 µg/mL (≈ 1.12 µM) | – | –
CO[C@@]1(NC(=O)[C@H](NC(=O)c2coc3cc(OC(=O)OCC(Cl)(Cl)Cl)c(OC(=O)OCC(Cl)(Cl)Cl)cc3c2=O)c2ccc(O)cc2)C(=O)N2C(C(=O)O)=C(COC(C)=O)CS[C@@H]21 [Example 25, 7β-[D-2-(6,7-Bis(2,2,2-trichloroethoxycarbonyloxy)chromone-3-carboxamido)-2-(4-hydroxyphenyl)acetamido]-7α-methoxy-3-acetoxymethyl-3-cephem-4-carboxylic acid] | 3.13 µg/mL (≈ 3.11 µM) | 12.5 µg/mL (≈ 12.4 µM) | ≤ 0.1 µg/mL | 25 µg/mL (≈ 24.8 µM) | 0.8 µg/mL (≈ 0.795 µM) | 0.8 µg/mL (≈ 0.795 µM) | 3.13 µg/mL (≈ 3.11 µM) | – | –
COC(=O)Cn1nnnc1SCC1=C(C(=O)O)N2C(=O)[C@](NC(=O)[C@H](NC(=O)c3coc4cc(O)c(O)cc4c3=O)c3ccc(O)cc3)(OC)[C@H]2SC1 [Example 19, 7β-[D-2-(6,7-Dihydroxychromone-3-carboxamido)-2-(4-hydroxyphenyl)acetamido]-7α-methoxy-3-(1-methoxycarbonylmethyl-5-tetrazolyl)thiomethyl-3-cephem-4-carboxylic acid] | 3.13 µg/mL (≈ 4.07 µM) | 1.56 µg/mL (≈ 2.03 µM) | ≤ 0.1 µg/mL | 1.56 µg/mL (≈ 2.03 µM) | 0.8 µg/mL (≈ 1.04 µM) | ≤ 0.1 µg/mL | 0.4 µg/mL (≈ 0.52 µM) | – | –
CO[C@@]1(NC(=O)[C@H](NC(=O)c2coc3cc(O)c(O)cc3c2=O)c2ccc(O)cc2)C(=O)N2C(C(=O)O)=C(CSc3nncs3)CS[C@@H]21 [Example 33, 7β-[D-2-(6,7-Dihydroxychromone-3-carboxamido)-2-(4-hydroxyphenyl)acetamido]-7α-methoxy-3-[2-(1,3,4-thiadiazolyl)]thiomethyl-3-cephem-4-carboxylic acid] | 1.56 µg/mL (≈ 2.19 µM) | 6.25 µg/mL (≈ 8.76 µM) | ≤ 0.1 µg/mL | 25 µg/mL (≈ 35 µM) | 0.4 µg/mL (≈ 0.56 µM) | 0.2 µg/mL (≈ 0.28 µM) | 1.56 µg/mL (≈ 2.19 µM) | – | –
CCOC(=O)Oc1cc2occ(C(=O)N[C@@H](C(=O)N[C@]3(OC)C(=O)N4C(C(=O)O)=C(COC(C)=O)CS[C@@H]43)c3ccc(O)cc3)c(=O)c2cc1OC(=O)OCC [Example 22, 7β-[D-2-(6,7-Bis(ethoxycarbonyloxy)chromone-3-carboxamido)-2-(4-hydroxyphenyl)acetamido]-7α-methoxy-3-acetoxymethyl-3-cephem-4-carboxylic acid] | 1.56 µg/mL (≈ 1.95 µM) | 6.25 µg/mL (≈ 7.82 µM) | ≤ 0.1 µg/mL | 25 µg/mL (≈ 31.3 µM) | 0.8 µg/mL (≈ 1 µM) | 0.4 µg/mL (≈ 0.5 µM) | 1.56 µg/mL (≈ 1.95 µM) | – | –
Cc1nnc(SCC2=C(C(=O)O)N3C(=O)[C@@H](NC(=O)Cn4cnnn4)[C@H]3SC2)s1 [Control, Sodium salt of Cefazolin, reference compound] | 0.4 µg/mL | – | – | > 100 µg/mL | > 100 µg/mL | > 100 µg/mL | > 3200 µg/mL | 1.56 µg/mL | 1.56 µg/mL
CO[C@@]1(NC(=O)[C@H](NC(=O)c2coc3cc(OC(C)=O)c(OC(C)=O)cc3c2=O)c2ccc(O)cc2)C(=O)N2C(C(=O)O)=C(CSc3nnnn3C)CS[C@@H]21 [Example 1, 7β-[D-2-(6,7-Diacetoxychromone-3-carboxamido)-2-(4-hydroxyphenyl)acetamido]-7α-methoxy-3-(1-methyl-5-tetrazolyl)thiomethyl-3-cephem-4-carboxylic acid] | 1.56 µg/mL (≈ 1.96 µM) | 0.4 µg/mL (≈ 0.503 µM) | ≤ 0.1 µg/mL | 3.13 µg/mL (≈ 3.93 µM) | 0.4 µg/mL (≈ 0.503 µM) | ≤ 0.1 µg/mL | 0.4 µg/mL (≈ 0.503 µM) | – | –
COC(=O)Cn1nnnc1SCC1=C(C(=O)O)N2C(=O)[C@](NC(=O)[C@H](NC(=O)c3coc4cc(OC(=O)OCC(Cl)(Cl)Cl)c(OC(=O)OCC(Cl)(Cl)Cl)cc4c3=O)c3ccc(O)cc3)(OC)[C@H]2SC1 [Example 26, 7β-[D-2-(6,7-Bis(2,2,2-trichloroethoxycarbonyloxy)chromone-3-carboxamido)-2-(4-hydroxyphenyl)acetamido]-7α-methoxy-3-(1-methoxycarbonylmethyl-5-tetrazolyl)thiomethyl-3-cephem-4-carboxylic acid] | 12.5 µg/mL (≈ 11.2 µM) | 6.25 µg/mL (≈ 5.58 µM) | ≤ 0.1 µg/mL | 6.25 µg/mL (≈ 5.58 µM) | 1.56 µg/mL (≈ 1.39 µM) | 0.2 µg/mL (≈ 0.178 µM) | 0.8 µg/mL (≈ 0.714 µM) | – | –
CO[C@@]1(NC(=O)[C@H](NC(=O)c2coc3cc(O)c(O)cc3c2=O)c2ccc(O)cc2)C(=O)N2C(C(=O)O)=C(CSc3nnc(CC(=O)O)s3)CS[C@@H]21 [Example 28, 7β-[D-2-(6,7-Dihydroxychromone-3-carboxamido)-2-(4-hydroxyphenyl)acetamido]-7α-methoxy-3-[5-carboxymethyl-2-(1,3,4-thiadiazolyl)]thiomethyl-3-cephem-4-carboxylic acid] | 3.13 µg/mL (≈ 4.06 µM) | 3.13 µg/mL (≈ 4.06 µM) | ≤ 0.1 µg/mL | 12.5 µg/mL (≈ 16.2 µM) | 0.8 µg/mL (≈ 1.04 µM) | 0.4 µg/mL (≈ 0.518 µM) | 1.56 µg/mL (≈ 2.02 µM) | – | –
CO[C@@]1(NC(=O)[C@H](NC(=O)c2coc3c(C)c(OCc4ccccc4)ccc3c2=O)c2ccccc2)C(=O)N2C(C(=O)O)=C(COC(C)=O)CS[C@@H]21 [Example 13, 7β-[D-2-(7-Benzyloxy-8-methylchromone-3-carboxamido)-2-phenylacetamido]-7α-methoxy-3-acetoxymethyl-3-cephem-4-carboxylic acid] | 0.4 µg/mL (≈ 0.55 µM) | 3.13 µg/mL (≈ 4.3 µM) | 3.13 µg/mL (≈ 4.3 µM) | 1.56 µg/mL (≈ 2.14 µM) | 12.5 µg/mL (≈ 17.2 µM) | 3.13 µg/mL (≈ 4.3 µM) | 0.8 µg/mL (≈ 1.1 µM) | – | –
CO[C@@]1(NC(=O)[C@H](NC(=O)c2coc3c(O)c(O)ccc3c2=O)c2ccc(O)cc2)C(=O)N2C(C(=O)O)=C(CSc3nnnn3CC(=O)O)CS[C@@H]21 [Example 18, 7β-[D-2-(7,8-Dihydroxychromone-3-carboxamido)-2-(4-hydroxyphenyl)acetamido]-7α-methoxy-3-(1-carboxymethyl-5-tetrazolyl)thiomethyl-3-cephem-4-carboxylic acid] | 25 µg/mL (≈ 33.1 µM) | 25 µg/mL (≈ 33.1 µM) | 0.8 µg/mL (≈ 1.06 µM) | 50 µg/mL (≈ 66.2 µM) | 6.25 µg/mL (≈ 8.27 µM) | 3.13 µg/mL (≈ 4.14 µM) | 6.25 µg/mL (≈ 8.27 µM) | – | –
CO[C@@]1(NC(=O)[C@H](NC(=O)c2coc3cc(O)c(O)cc3c2=O)c2ccc(O)cc2)C(=O)N2C(C(=O)O)=C(CSc3nnc(CC(=O)O)o3)CS[C@@H]21 [Example 29, 7β-[D-2-(6,7-Dihydroxychromone-3-carboxamido)-2-(4-hydroxyphenyl)acetamido]-7α-methoxy-3-[5-carboxymethyl-2-(1,3,4-oxadiazolyl)]thiomethyl-3-cephem-4-carboxylic acid] | 6.25 µg/mL (≈ 8.27 µM) | 12.5 µg/mL (≈ 16.5 µM) | ≤ 0.1 µg/mL | 25 µg/mL (≈ 33.1 µM) | 0.8 µg/mL (≈ 1.06 µM) | 0.8 µg/mL (≈ 1.06 µM) | 3.13 µg/mL (≈ 4.14 µM) | – | –
CCOC(=O)Oc1cc2occ(C(=O)N[C@@H](C(=O)N[C@]3(OC)C(=O)N4C(C(=O)O)=C(CSc5nnnn5CC(=O)O)CS[C@@H]43)c3ccc(O)cc3)c(=O)c2cc1OC(=O)OCC [Example 27, 7β-[D-2-(6,7-Bis(ethoxycarbonyloxy)chromone-3-carboxamido)-2-(4-hydroxyphenyl)acetamido]-7α-methoxy-3-(1-carboxymethyl-5-tetrazolyl)thiomethyl-3-cephem-4-carboxylic acid] | 3.13 µg/mL (≈ 3.48 µM) | 3.13 µg/mL (≈ 3.48 µM) | ≤ 0.1 µg/mL | 6.25 µg/mL (≈ 6.95 µM) | 0.8 µg/mL (≈ 0.889 µM) | 0.2 µg/mL (≈ 0.222 µM) | 0.8 µg/mL (≈ 0.889 µM) | – | –
